Source: PubChem BioAssay (NCI)
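Growth conditions: 96-well plates. Treatment: test compound, 48 hours, 5 concentrations. Analysis: linear interpolation between bracketing concentrations; unreached endpoints set to highest concentration. GI50 is the concentration that inhibits growth by half. The concentration for full growth arrest is given as TGI.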 Where a SMILES comes first, the peptide text is derived from it.

Columns and labels:
Assay in all cases: growth of human tumour cells (NCI), 48 h
U251 CNS = test system: U251 CNS
MDA-N = test system: MDA-N
OVCAR-5 ovarian = test system: OVCAR-5 ovarian
IGROV1 ovarian = test system: IGROV1 ovarian
SNB-19 CNS = test system: SNB-19 CNS
SN12C renal = test system: SN12C renal
LOX IMVI melanoma = test system: LOX IMVI melanoma
MOLT-4 leukemia = test system: MOLT-4 leukemia
SK-OV-3 ovarian = test system: SK-OV-3 ovarian
HOP-62 NSCLC = test system: HOP-62 NSCLC
SK-MEL-2 melanoma = test system: SK-MEL-2 melanoma

SMILES | TGI (U251 CNS) [µM] | TGI (MDA-N) [µM] | TGI (OVCAR-5 ovarian) [µM] | TGI (IGROV1 ovarian) [µM] | TGI (SNB-19 CNS) [µM] | TGI (SN12C renal) [µM] | TGI (LOX IMVI melanoma) [µM] | TGI (MOLT-4 leukemia) [µM] | TGI (SK-OV-3 ovarian) [µM] | TGI (HOP-62 NSCLC) [µM] | TGI (SK-MEL-2 melanoma) [µM] | GI50 (U251 CNS) [µM] | GI50 (OVCAR-5 ovarian) [µM] | GI50 (SNB-19 CNS) [µM] | GI50 (SN12C renal) [µM] | GI50 (LOX IMVI melanoma) [µM] | GI50 (MOLT-4 leukemia) [µM] | GI50 (SK-OV-3 ovarian) [µM] | GI50 (SK-MEL-2 melanoma) [µM]
C/C(N=Nc1nc2ccccc2[nH]1)=C1/C=CC=CN1O | > 100 | > 100 | > 100 | > 100 | > 100 | > 100 | > 100 | > 100 | > 100 | > 100 | > 100 |  |  |  |  |  |  |  | 
CCC(C)C(NC(=O)C1CCCN1C(=O)C(CC(C)C)NC(=O)C(CC(C)C)NC(=O)C(N)CC(C)C)C(=O)NC(C(=O)NCC(=O)NC(CC(N)=O)C(=O)NC(CC(C)C)C(=O)NC(CC(C)C)C(=O)NC(CC(C)C)C(N)=O)C(C)C (stereo unspecified) (H-LLLPIVGNLLL-NH2; configuration not given here) | > 50 | > 50 | > 50 | > 50 | > 50 | > 50 | > 50 | > 50 | > 50 | > 50 | > 50 |  |  |  |  |  |  |  | 
COC(=O)C1=C(O)CCCC(CCC(C)=O)=C1 | > 100 | > 100 | > 100 | > 100 | > 100 | > 100 | > 100 | > 100 | > 100 |  | > 100 |  |  |  |  |  |  |  | 
CC(=O)c1ccc2c(c1)N(CCCN1CCN(CCO)CC1)c1ccccc1C2 | 29.8 | 26.7 | 32.1 | 31.3 | 33.8 | 31.2 | 29.6 | 35.2 | 30.5 | 30.3 | 33.5 |  |  |  |  |  |  |  | 
C1=CC(=[N+]2N=C(c3ccccc3)CC2c2ccccc2)C=CC1=C1SC(c2ccccc2)(c2ccccc2)c2ccccc21 (stereo unspecified) | > 100 | > 100 | > 100 | > 100 | > 100 | > 100 |  | > 100 | > 100 | > 100 | > 100 |  |  |  |  |  |  |  | 
NC(=S)N1N=C(c2ccccc2O)CC1c1ccccc1 (stereo unspecified) | 43.8 | 10.5 | 50.9 | 48.6 | > 100 | 45.3 | 46.2 | 78.7 | 49.8 | 25.5 | 20.3 |  |  |  |  |  |  |  | 
CCCCCOC(=O)c1cc2cc(CCl)ccc2oc1=O | 34.9 | 20.9 | 31.6 | 27.8 | > 76.8 | 28.1 | 34.5 | > 81.7 | 45 | 32.9 | 2.08 |  |  |  |  |  |  |  | 
COc1cc2c(cc1C)NC(=O)/C2=C/c1c(Cl)n(-c2ccccc2)c2ccccc12 | 64.3 | 37 | > 100 | > 100 | > 100 | 23.6 | 27.8 | 33.8 | 69.7 | 63.7 | 36 |  |  |  |  |  |  |  | 
CCCN1C(=O)CSC1=Nc1ccc2cc3ccc(N=C4SCC(=O)N4CCC)cc3nc2c1 | > 100 |  | > 100 |  | > 100 | > 100 | > 100 | > 100 | > 100 |  | > 100 | 48.2 | > 100 | 95.4 | > 100 | > 100 | > 100 | 39.4 | > 100
COC(OC)C1OC(CO)C(n2cc(F)c(=O)[nH]c2=O)C1O (stereo unspecified) | > 100 | > 100 | > 100 | > 100 | > 100 | > 100 | > 100 | > 100 | > 100 | > 100 | > 100 |  |  |  |  |  |  |  | 
Cc1cc(=O)[nH]c(/N=C(\N)Nc2ccc(Cl)cc2)n1 | > 100 | > 100 | > 100 | > 100 | > 100 | > 100 | > 100 | > 100 |  | > 100 | > 100 |  |  |  |  |  |  |  | 
CC(C)C1OC(=O)/C=C/C=C/C=C/C=C/C=C/CC(O)C(C)C(O)CC(O)CC(O)CC(O)CC(O)CC(O)CC(O)/C=C/C1C (stereo unspecified) | > 100 |  | > 100 | > 100 | > 100 |  |  | > 100 | > 100 | > 100 | > 100 |  |  |  |  |  |  |  | 
O=S(=O)(O)c1cc(N=[N+]([O-])c2cc(S(=O)(=O)O)c3ccccc3c2)cc2ccccc12 | > 100 | 41.7 | > 100 | > 100 | > 100 | 53.8 | 60.6 |  | > 100 | > 100 | 66.1 |  |  |  |  |  |  |  | 
O=[N+]([O-])c1ccc2c(c1)nc(Cc1ccc(Cl)cc1)n2C[C@@H]1CCCN2CCCCC12 (stereo partly specified) | 45.5 | 25.9 | 35.3 | 26.7 | 50.5 | 27.6 | 28.7 | > 44.8 | 43.5 | 48.9 | 30.7 |  |  |  |  |  |  |  | 
Cc1nc2ncn3c(c-2c1Cc1ccccc1)NC=C(O)N3 | > 100 | > 100 | > 100 | 65.7 | > 100 | > 100 |  | > 100 | > 100 | > 100 | > 100 |  |  |  |  |  |  |  | 
CC(=O)Oc1ccc(CO)cc1OC(C)=O | > 100 |  | > 100 |  | > 100 | > 100 | > 100 | > 100 | > 100 | > 100 | > 100 |  |  |  |  |  |  |  | 
O=c1[nH]c(Nc2ccc(Cl)cc2)nc2nc[nH]c12 | > 100 |  | > 100 | > 100 | > 100 | > 100 | > 100 |  | > 100 | > 100 | > 100 |  |  |  |  |  |  |  | 
CSCCC(NC(=O)OCc1ccccc1)P(=O)(O)c1ccccc1 (stereo unspecified) | > 100 | > 100 | > 100 | > 100 | > 100 | > 100 | > 100 | > 100 | > 100 | > 100 | > 100 |  |  |  |  |  |  |  | 
